Source: PubChem BioAssay (NCI)
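Exposure lasted 48 hours, with cells grown in 96-well plates and compounds tested at five concentrations. At the TGI there is no net growth.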

What was measured:
Assay in all cases: inhibition of tumour cell growth, NCI panel, 48 h
IGROV1 ovarian = test system: IGROV1 ovarian
A549 NSCLC = test system: A549 NSCLC
PC-3 prostate = test system: PC-3 prostate
SK-MEL-5 melanoma = test system: SK-MEL-5 melanoma
CAKI-1 renal = test system: CAKI-1 renal
SF-268 CNS = test system: SF-268 CNS
M19-MEL melanoma = test system: M19-MEL melanoma
NCI-H522 lung = test system: NCI-H522 lung
COLO 205 colon = test system: COLO 205 colon
UACC-62 melanoma = test system: UACC-62 melanoma
SK-MEL-2 melanoma = test system: SK-MEL-2 melanoma
SR leukemia = test system: SR leukemia

## Nc1nc(SCc2ccccc2[N+](=O)[O-])c2[nH]cnc2n1
IGROV1 ovarian
  TGI: > 68.4 µM
A549 NSCLC
  TGI: > 100 µM
PC-3 prostate
  TGI: > 100 µM
SK-MEL-5 melanoma
  TGI: 49.1 µM
CAKI-1 renal
  TGI: > 100 µM
SF-268 CNS
  TGI: > 84.6 µM
M19-MEL melanoma
  TGI: > 100 µM
NCI-H522 lung
  TGI: > 67.5 µM
COLO 205 colon
  TGI: > 71.7 µM
UACC-62 melanoma
  TGI: > 100 µM
SK-MEL-2 melanoma
  TGI: 90.3 µM
SR leukemia
  TGI: > 100 µM

## Oc1cccc2nc3cc(CN4CCOCC4)c(CN4CCOCC4)cc3nc12
IGROV1 ovarian
  TGI: > 100 µM
A549 NSCLC
  TGI: > 100 µM
SK-MEL-5 melanoma
  TGI: 55.3 µM
CAKI-1 renal
  TGI: > 100 µM
SF-268 CNS
  TGI: > 100 µM
M19-MEL melanoma
  TGI: 66.5 µM
NCI-H522 lung
  TGI: > 100 µM
COLO 205 colon
  TGI: > 100 µM
UACC-62 melanoma
  TGI: 76.8 µM
SK-MEL-2 melanoma
  TGI: > 100 µM
SR leukemia
  TGI: > 100 µM

## CCOC(=O)CC(=Nc1cc(C)on1)N(CC)CC
IGROV1 ovarian
  TGI: > 100 µM
A549 NSCLC
  TGI: > 100 µM
SK-MEL-5 melanoma
  TGI: > 100 µM
CAKI-1 renal
  TGI: > 100 µM
SF-268 CNS
  TGI: > 100 µM
M19-MEL melanoma
  TGI: > 100 µM
NCI-H522 lung
  TGI: > 100 µM
COLO 205 colon
  TGI: > 100 µM
UACC-62 melanoma
  TGI: > 100 µM
SK-MEL-2 melanoma
  TGI: > 100 µM
SR leukemia
  TGI: > 100 µM
